US7199112B2, “Use of phospholipid arachidonic acids for increasing muscle mass in humans” (priority 2005, dated 2007)

Columns and labels:
IGF-1 response = settings: certain cell studies; cited from earlier work
[1] = tested on: adrenocorticotropin (ACTH) and cortisol response; settings: intravenous infusion; cited from earlier work
[2] = tested on: lean skeletal muscle mass; settings: peroral, humans, clinical study by the inventor
[3] = tested on: intestinal transport of certain nutrients; settings: cited from earlier work

Substance: Phosphatidylcholine
- IGF-1 response (IGF-1 response): exert an IGF-1 response

Substance: Phosphatidylserine
- adrenocorticotropin (ACTH) and cortisol response to stressful exercise [1]: significantly suppresses

Substance: lysophosphatidylcholine arachidonic acid
- increasing lean skeletal muscle mass [2]: effective

Substance: Lysophosphatidylcholine
- intestinal transport of certain nutrients [3]: increases

Substance: phosphatidylcholine arachidonic acid
- increasing lean skeletal muscle mass [2]: effective

Substance: phosphatidylserine arachidonic acid
- increasing lean skeletal muscle mass [2]: effective
